This passage reports EC50 results from paper PMC5740381 (Antimicrobial Agents and Chemotherapy, 2017).

For one assay, the system named is HIV-1 pNL4-3. Nature of the assay: HIV-1 5-day cytoprotection assay in MT4 cells. The format is cell-based, human immunodeficiency virus type 1. The settings on record: Human immunodeficiency virus 1, HIV-1 pNL4-3 infectivity, HIV-1 PI alone. The procedure:
. […]. The plates were incubated at 37°C for 5 days. After this period, 25 μl MTT reagent (4 mg/ml) was added to the cells, and the plates were incubated for 4 h. The MTT formazan formed in the cells was solubilized by 50 μl of acidified SDS overnight. The plates were read at wavelengths of 570 and 650 nm using a spectrophotometer. […]

The target in the next assay is T1, 4a D168H.
T1 construct: in chimeric transient replicon
In words: Luciferase assay of HCV replication in transient-transfection replicons with wild-type or substituted NS3 (at least 3 transfections). Format: cell-based, Huh-7. The note with it: SD, n = 3.

The test system of a further assay is 4d D168V. The note with it: read-out: Mean EC50 ± SD, n = 3. The method, then:
Mutagenesis was performed using a Change-IT multiple-mutation site-directed mutagenesis kit (USB, Cleveland, OH) or by cloning a synthesized DNA fragment encoding the amino acid substitution(s). The genotype 1a and 1b replicon shuttle vectors used for the introduction of the substitutions of interest in the NS3, NS5A, or NS5B gene for transient-transfection assays have been described previously ([28], [33]). The replicon shuttle vectors used for the introduction of substitutions in NS3 genes from other genotypes were similar to the stable replicon cell line constructs described above, except for the absence of the neo gene. After mutagenesis, the plasmids were linearized and RNA was transcribed and then used to transfect Huh-7 cells. Inhibition of HCV replication by the HCV inhibitors was measured by luciferase assay, as described above. Replication efficiency was calculated as a percentage of wild-type replication, as described previously ([28]).

The next assay addresses T2, 4d Wild type.
T2 construct: NS3 in transient replicon
In words: Luciferase assay of HCV replication in transient-transfection replicons with wild-type or substituted NS3 (at least 3 transfections). Format: cell-based, Huh-7. The note with it: SD, n = 3.

In the next assay the target is T3, 4a A156V.
T3 construct: in chimeric transient replicon
The assay is described as above. The format is cell-based, Huh-7. The note with it: SD, n = 3.

For another assay, the target named is T4, 3a Q168R.
T4 construct: in chimeric transient replicon
The description is as above. Format: cell-based, Huh-7. The settings on record: SD, n = 3.

For another assay, the target named is T5, 4a D168V.
T5 construct: in chimeric transient replicon
The assay is described as above. The note with it: SD, n = 3. The format is cell-based, Huh-7.

A further assay concerns the target T6, 6a D168H.
T6 construct: in chimeric transient replicon
The assay is described as above. The note with it: SD, n = 3. Format: cell-based, Huh-7.

In the next assay the target is T7, 2b D168A.
T7 construct: in genotype 2a JFH-1 chimeric transient replicon
Described as above. Format: cell-based, Huh-7. The settings on record: SD, n = 3.

The target of the next assay is T8, 4a A156T.
T8 construct: in chimeric transient replicon
The assay is described as above. The format is cell-based, Huh-7. The settings on record: SD, n = 3.

Assay [1] deals with T9, GT4a / 4a Wild type.
T9 construct: NS3 N-terminal region in chimeric replicon
The assay is described as above. Format: cell-based, Huh-7. The settings on record: SD, n = 3.

A further assay addresses T10, 2b A156T.
T10 construct: in genotype 2a JFH-1 chimeric transient replicon
The assay is described as above. The format is cell-based, Huh-7. The note with it: SD, n = 3.

A further assay addresses T11, 6a D168V.
T11 construct: in chimeric transient replicon
The description is as above. The format is cell-based, Huh-7. The note with it: SD, n = 3.

Assay [2] addresses T12, GT3a / 3a Wild type.
T12 construct: NS3 N-terminal region in chimeric replicon
The assay is described as above. Format: cell-based, Huh-7. The note with it: SD, n = 3.

The target of the next assay is T13, GT2b / 2b Wild type.
T13 construct: NS3 protease domain (N-terminal 251 aa) in genotype 2a JFH-1 chimeric replicon
The description is as above. Format: cell-based, Huh-7. The settings on record: SD, n = 3.

The target in a further assay is T14, 2b D168E.
T14 construct: in genotype 2a JFH-1 chimeric transient replicon
The description is as above. The format is cell-based, Huh-7. The settings on record: SD, n = 3.

Assay [3] deals with T15, GT6a / 6a Wild type.
T15 construct: NS3 N-terminal region in chimeric replicon
The description is as above. The format is cell-based, Huh-7. The note with it: SD, n = 3.

A further assay addresses T16, 6a D168A.
T16 construct: in chimeric transient replicon
Described as above. Format: cell-based, Huh-7. The note with it: SD, n = 3.

The target in the next assay is T17, 3a A156G.
T17 construct: in chimeric transient replicon
The assay is described as above. The note with it: SD, n = 3. Format: cell-based, Huh-7.

The target in a further assay is T18, 2b D168V.
T18 construct: in genotype 2a JFH-1 chimeric transient replicon
The assay is described as above. The format is cell-based, Huh-7. The settings on record: SD, n = 3.

Assay [4] concerns T12, GT3a / 3a Wild type. In words: Luciferase reporter assay of HCV replication in stable subgenomic replicon cells, 5% fetal bovine serum, no human plasma (at least 3 experiments). Format: cell-based, Huh-7. The note with it: SD, n = 3; read-out: HCV stable replicons in 0% human plasma, Mean EC50 ± SD. The text has this: (§1) . Five of these nine cell lines have been described previously, including those transfected with genotypes 1a H77, 1b Con1, 3a, 4a, and 6a ([28]). The other four cell lines were established by transfecting cells with a nonchimeric genotype 2a JFH-1 replicon (GenBank accession number AB047639), two genotype 2a JFH-1 chimeric replicons containing either a genotype 2b NS3 protease domain (N-terminal 251 amino acids) or a sequence encoding full-length NS3 through the first 39 amino acids of NS5B from genotype 5a (strain SA13), and one chimeric replicon with a genotype 1b Con1 backbone containing full-length NS3 and NS4A sequences from genotype 6e. The genotype 2b and 6e NS3 sequences were each synthetically constructed based on a consensus sequence derived from the alignment of 15 genotype 2b and 4 genotype 6e sequences, respectively. All replicon constructs were bicistronic subgenomic replicons similar to those described by Bartenschlager and coworkers, and the replicon cell lines were generated by introducing these constructs into cells of an Huh-7 human hepatoma-derived cell line ([50]). The inhibitory effect of the PIs on HCV replication in replicon cells was determined in Dulbecco's modified Eagle medium containing 5% fetal bovine serum with or without 40% human plasma (Bioreclamation, Westbury, NY). The EC50s were determined using nonlinear regression curve fitting as described previously ([33]).

Assay [5] relates to T9, GT4a / 4a Wild type. The description is as above. The format is cell-based, Huh-7. The settings on record: SD, n = 3; read-out: HCV stable replicons in 0% human plasma, Mean EC50 ± SD.
From the text: as §1

A further assay deals with T19, GT6e.
T19 construct: full-length NS3 and NS4A in genotype 1b Con1 chimeric replicon
Described as above. Format: cell-based, Huh-7. The note with it: SD, n = 3; read-out: HCV stable replicons in 0% human plasma, Mean EC50 ± SD.
From the text: as §1

The subject of assay [6] is T15, GT6a / 6a Wild type. The assay is described as above. Format: cell-based, Huh-7. The note with it: SD, n = 3; read-out: HCV stable replicons in 0% human plasma, Mean EC50 ± SD.
From the text: as §1

Another assay deals with T20, 4a R155C.
T20 construct: in chimeric transient replicon
In words: Luciferase assay of HCV replication in transient-transfection replicons with wild-type or substituted NS3 (at least 3 transfections). The format is cell-based, Huh-7. The settings on record: SD, n = 3.

The target in the next assay is T21, 2b A156V.
T21 construct: in genotype 2a JFH-1 chimeric transient replicon
The assay is described as above. Format: cell-based, Huh-7. The note with it: SD, n = 3.

Assay [7] relates to genotype 1b Con1 replicon cells. Nature of the assay: Checkerboard combination assay (MacSynergy II). The format is cell-based, Hepatitis C virus. The procedure: […]. The resulting data were analyzed using the MacSynergy II program ([34], [51], [52]). The assignment of the synergy or antagonism volumes was based on the guidelines provided in the MacSynergy II program user's manual ([34]).

`CC(C)CN(C[C@@H](O)[C@H](Cc1ccccc1)NC(=O)O[C@H]1CO[C@H]2OCC[C@H]21)S(=O)(=O)c1ccc(N)cc1` [Darunavir] gave an EC50 in the assay with HIV-1 pNL4-3 of 10 nM.
On to `C=C[C@@H]1C[C@]1(NC(=O)[C@@H]1C[C@@H]2CN1C(=O)[C@H](C(C)(C)C)NC(=O)O[C@@H]1C[C@H]1CCCCCc1nc3ccc(OC)cc3nc1O2)C(=O)NS(=O)(=O)C1CC1` [Grazoprevir, grazoprevir (MK-5172)], for which the EC50 was found to be 25 ± 6.3 nM at 4a D168H; 2.5 ± 0.08 nM with 4d D168V; 0.18 ± 0.01 nM on 4d Wild type; 169 ± 27 nM on 4a A156V; 165 ± 46 nM at 3a Q168R; 13 ± 1.1 nM on 4a D168V. In addition, the EC50 on 6a D168H is 45 ± 4.1 nM; at 2b D168A, 347 ± 113 nM; on 4a A156T, 296 ± 22 nM; at GT4a / 4a Wild type [1], 0.28 ± 0.04 nM; at 2b A156T, 1560 nM; at 6a D168V, 24 ± 1.2 nM. The EC50 at GT3a / 3a Wild type [2] is 47 ± 14 nM; on GT2b / 2b Wild type it was 6.1 ± 1.3 nM; at 2b D168E, 35 ± 6 nM; at GT6a / 6a Wild type [3], 0.1 ± 0.02 nM; on 6a D168A it was 103 ± 34 nM; at 3a A156G it was 614 ± 148 nM. In addition, the EC50 on 2b D168V was found to be 88 ± 19 nM; in the assay on GT3a / 3a Wild type [4], 83 ± 18 nM; with GT4a / 4a Wild type [5] it was 1.2 ± 0.31 nM; in the assay on GT6e, 0.25 ± 0.01 nM; in the assay with GT6a / 6a Wild type [6], 0.89 ± 0.32 nM; at 4a R155C, 2 ± 0.27 nM. For the same compound, on 2b A156V, the EC50 is 2890 nM.
`Cc1cccc(C)c1OCC(=O)N[C@@H](Cc1ccccc1)[C@@H](O)C[C@H](Cc1ccccc1)NC(=O)[C@H](C(C)C)N1CCCNC1=O` [Lopinavir]: the EC50 in the assay with HIV-1 pNL4-3 was determined as 23 nM.
On to `NC(=O)c1ncn([C@@H]2O[C@H](CO)[C@@H](O)[C@H]2O)n1` [RBV, reference compound], for which the EC50 in [7] (Hepatitis C virus) came to 19 µM.
On to IFN-α, for which the EC50 in assay [7] (genotype 1b replicon cells) came to 1.2 IU/ml.
